According to ChEMBL document CHEMBL1208726, “Synthesis and anti-inflammatory activity of some 3-(4,6-disubtituted-2-thioxo-1,2,3,4-tetrahydropyrimidin-5-yl) propanoic acid derivatives” (2010):

Key:
Format in all cases: functional
Rattus norvegicus [1] = assay: Antiinflammatory activity in Albino rat assessed as inhibition of carrageenan-induced paw volume at 20 mg/kg, po administered 1 hr before carrageenan challenge measured after 3 hrs
Rattus norvegicus [2] = assay: Antiinflammatory activity in Albino rat assessed as reduction of carrageenan-induced paw volume at 20 mg/kg, po administered 1 hr before carrageenan challenge measured after 1 hr (reference value: 1.925 +/- 0.1011 ml)
Rattus norvegicus [3] = assay: Antiinflammatory activity in Albino rat assessed as reduction of carrageenan-induced paw volume at 20 mg/kg, po administered 1 hr before carrageenan challenge measured after 3 hrs (reference value: 1.63 +/- 0.059 ml)
Rattus norvegicus [4] = assay: Antiinflammatory activity in Albino rat assessed as inhibition of carrageenan-induced paw volume at 20 mg/kg, po administered 1 hr before carrageenan challenge measured after 2 hrs
Rattus norvegicus [5] = assay: Antiinflammatory activity in Albino rat assessed as inhibition of carrageenan-induced paw volume at 20 mg/kg, po administered 1 hr before carrageenan challenge measured after 1 hr
Rattus norvegicus [6] = assay: Antiinflammatory activity in Albino rat assessed as reduction of carrageenan-induced paw volume at 20 mg/kg, po administered 1 hr before carrageenan challenge measured after 24 hrs (reference value: 1.39 +/- 0.053 ml)
Rattus norvegicus [7] = assay: Antiinflammatory activity in Albino rat assessed as reduction of carrageenan-induced paw volume at 20 mg/kg, po administered 1 hr before carrageenan challenge measured after 2 hrs (reference value: 1.905 +/- 0.046 ml)
Rattus norvegicus [8] = assay: Antiinflammatory activity in Albino rat assessed as reduction of carrageenan-induced paw volume at 20 mg/kg, po administered 1 hr before carrageenan challenge measured after 4 hrs (reference value: 1.44 +/- 0.046 ml)
Rattus norvegicus [9] = assay: Antiinflammatory activity in Albino rat assessed as inhibition of carrageenan-induced paw volume at 20 mg/kg, po administered 1 hr before carrageenan challenge measured after 4 hrs
Rattus norvegicus [10] = assay: Antiinflammatory activity in Albino rat assessed as inhibition of carrageenan-induced paw volume at 20 mg/kg, po administered 1 hr before carrageenan challenge measured after 24 hrs

Row | SMILES | inhibition in vivo at 20 mg/kg (Rattus norvegicus [1]) | Activity (Rattus norvegicus [2]) | Activity (Rattus norvegicus [3]) | inhibition in vivo at 20 mg/kg (Rattus norvegicus [4]) | inhibition in vivo at 20 mg/kg (Rattus norvegicus [5]) | Activity (Rattus norvegicus [6]) | Activity (Rattus norvegicus [7]) | Activity (Rattus norvegicus [8]) | inhibition in vivo at 20 mg/kg (Rattus norvegicus [9]) | inhibition in vivo at 20 mg/kg (Rattus norvegicus [10])
1 | O=C(O)CCC1=C(c2ccc(Cl)cc2)NC(=S)NC1c1ccccc1O (stereo not given) | 1.22% | 1.74 mL | 1.61 mL | 14.7% | 9.61% | 1.46 mL | 1.62 mL | 1.58 mL |  | 
2 | O=C(O)CCC1=C(c2ccc(F)cc2)NC(=S)NC1c1ccco1 (stereo not given) | 3.68% | 1.45 mL | 1.57 mL | 14.2% | 24.7% | 1.48 mL | 1.63 mL | 1.56 mL |  | 
3 | O=C(O)CCC1=C(c2ccc(Cl)cc2)NC(=S)NC1c1ccco1 (stereo not given) | 5.52% | 1.34 mL | 1.54 mL | 17.9% | 30.4% | 1.39 mL | 1.56 mL | 1.47 mL |  | 
4 | COc1cc(C2NC(=S)NC(c3ccc(C)cc3)=C2CCC(=O)O)ccc1O (stereo not given) |  | 1.96 mL | 1.79 mL | 1.57% |  | 1.55 mL | 1.87 mL | 1.69 mL |  | 
5 | O=C(O)CCC1=C(c2ccccc2)NC(=S)NC1c1ccco1 (stereo not given) | 9.81% | 1.37 mL | 1.47 mL | 21.8% | 28.8% | 1.16 mL | 1.49 mL | 1.36 mL | 5.55% | 16.5%
6 | O=C(O)CCC1=C(c2ccc(Cl)cc2)NC(=S)NC1c1ccccn1 (stereo not given) | 5.52% | 1.5 mL | 1.54 mL | 21.8% | 22.1% | 1.3 mL | 1.49 mL | 1.6 mL |  | 6.47%
7 | Cc1ccc(C2=C(CCC(=O)O)C(c3ccco3)NC(=S)N2)cc1 (stereo not given) | 10.4% | 1.29 mL | 1.46 mL | 28.1% | 33% | 1.19 mL | 1.37 mL | 1.38 mL | 4.16% | 14.4%
8 | O=C(O)CCC1=C(c2ccccc2)NC(=S)NC1c1ccccc1O (stereo not given) | 12.9% | 1.29 mL | 1.42 mL | 28.6% | 33% | 1.36 mL | 1.36 mL | 1.49 mL |  | 2.15%
9 | COc1cc(C2NC(=S)NC(c3ccc(C)cc3)=C2CCC(=O)O)cc(OC)c1OC (stereo not given) | 15.9% | 1.53 mL | 1.37 mL | 14.2% | 20.5% | 1.54 mL | 1.63 mL | 1.44 mL |  | 
10 | O=C(O)Cc1ccccc1Nc1c(Cl)cccc1Cl [DICLOFENAC] | 20.9% | 1.51 mL | 1.29 mL | 17.9% | 21.6% | 1.51 mL | 1.56 mL | 1.34 mL | 6.94% | 
11 | COc1ccc(C2=C(CCC(=O)O)C(c3ccccc3O)NC(=S)N2)cc1 (stereo not given) | 20.9% | 1.38 mL | 1.29 mL | 27% | 28.3% | 1.2 mL | 1.39 mL | 1.33 mL | 7.63% | 13.7%
